Measurements as given in publication PMC4545587 (Biochimica et biophysica acta, 2013).
No end group written: not given here.

What was measured:
[1] = test system: Pseudomonas aeruginosa type 1; format: cell-based
[2] = test system: eukaryotic cells; details: cited from earlier work

KLFKRHLKWKII [SC4]
MIC value against P. aeruginosa ([1]; type 1): ~ 18 µM
P.a. LD50 ([1]; type 1, pH 7): 0.14 µM
lytic effect on eukaryotic cells [2]: no apparent lytic effect
